Molecules are shown by their SMILES.

Assay [1] addresses Sigma non-opioid intracellular receptor 1 (Cavia porcellus, UniProt Q60492). The experiment in a line: Displacement of [3H](+)-pentazocine from sigma 1 receptor in guinea pig brain homogenates after 90 mins by scintillation counting. In kind it is tissue-based. A general note: Displacement assays read how much labelled ligand stays bound in the presence of the test substance.

The nature of assay [2]: Selectivity ratio of Ki for sigma 2 receptor in rat liver to Ki for sigma 1 receptor in guinea pig brain.
Assay [3] is described as follows: Displacement of [3H]DTG from sigma 2 receptor in rat liver homogenates in presence of sigma-1 receptor blocker (+)-pentazocine after 120 mins by liquid scintillation counting. In kind it is tissue-based.
Assay [4] in a line: Selectivity ratio of Ki for sigma 1 receptor in guinea pig brain to Ki for sigma 2 receptor in rat liver.

Sigma non-opioid intracellular receptor 1, sequence (Q60492 whole entry): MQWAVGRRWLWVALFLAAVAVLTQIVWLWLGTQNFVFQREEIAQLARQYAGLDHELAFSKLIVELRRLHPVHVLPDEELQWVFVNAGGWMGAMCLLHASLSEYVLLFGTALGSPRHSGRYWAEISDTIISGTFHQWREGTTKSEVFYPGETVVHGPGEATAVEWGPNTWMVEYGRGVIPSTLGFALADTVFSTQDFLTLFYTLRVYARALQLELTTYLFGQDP

What is called Ki is the dissociation constant of the complex between target and ligand, obtained from inhibition or displacement. Consider `OC12CC3CC(CC(C3)N1CCc1cccc(F)c1)C2` (racemic), for which the Ki came out at 234 nM in assay [1] and 250 nM in assay [3]. For the same compound, the Ratio Ki in assay [2] worked out at 1.1.

As for `OC12CC3CC(CC(C3)N1CCc1ccc(F)cc1)C2` (racemic), the inhibition constant Ki in assay [1] is 246 nM; in assay [3], 201 nM. Moreover, the Ratio Ki in assay [4] is 1.2.

On to `Fc1cccc(CCN2C3CC4CC(C3)CC2C4)c1`, for which the figures for the Ki in assay [1] and in assay [3] were 8.3 nM and 40 nM, respectively. In addition, the Ratio Ki in assay [2] stood at 4.8.

Consider `OC12CC3CC(CC(C3)N1Cc1ccc(F)cc1)C2` (racemic), for which the values for the inhibition constant Ki in assay [1] and in assay [3] were 650 nM and 826 nM, respectively. Further, the Ratio Ki in assay [2] came to 1.3.

Turning to `Fc1ccc(CN2C3CC4CC(C3)CC2C4)cc1`, the Ki worked out at 12 nM in assay [1] and 90 nM in assay [3]. Besides, the Ratio Ki in assay [2] amounted to 7.5.

`COc1cccc(CN2C3CC4CC(C3)CC2(O)C4)c1` (racemic): the results for the Ki in assay [1] and in assay [3] were 1950 nM and 353 nM, respectively. In addition, in assay [4], the Ratio Ki stood at 5.5.

In the case of `Fc1ccc(CCN2C3CC4CC(C3)CC2C4)cc1`, the figures for the Ki in assay [1] and in assay [3] were 12.8 nM and 34 nM, respectively. The Ratio Ki in assay [2] is 2.7.

Take `COc1ccc(CN2C3CC4CC(C3)CC2C4)cc1`: the figures for the Ki in assay [1] and in assay [3] were 12.4 nM and 54 nM, respectively. The Ratio Ki in assay [2] came to 4.4.

`COc1ccc(CN2C3CC4CC(C3)CC2(O)C4)cc1` (racemic): the Ki is 1240 nM in assay [1] and 426 nM in assay [3]. For the same compound, the Ratio Ki in assay [4] stood at 2.9.

As to `COc1cccc(CN2C3CC4CC(C3)CC2C4)c1`, the values for the Ki in assay [1] and in assay [3] were 239 nM and 64 nM, respectively. Further, in assay [4], the Ratio Ki worked out at 3.7.
